In PMC5706701, “Development of a homogenous high-throughput assay for inositol hexakisphosphate kinase 1 activity” (PLoS ONE, 2017):
Counter-ions that a name gives are not always drawn.

Target: T1, Human IP6K1 (Homo sapiens, UniProt Q92551)
T1 construct: GST (N, cleaved yes); made in house; host or cells: C43 E. coli, pGEX-6P-2
Assay: IP6K1 high-throughput screen of the Sigma LOPAC (ADP-Glo Max, single point);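 also: final compound concentration 10µM in 5% DMSO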
Format: biochemical

[1] = Sigma LOPAC single-point screen, ADP-Glo Max raw signal per well
[2] = Sigma LOPAC single-point screen, Z-score from plate average and StDev
[3] = LOPAC single-point screen, ADP-Glo Max raw signal per well
[4] = LOPAC single-point screen, Z-score against plate average and StDev
[5] = LOPAC single-point screen, ADP-Glo Max luminescence raw signal per well
[6] = LOPAC single-point screen, Z-score from plate average and StDev
[7] = LOPAC single-point screen, Z-score relative to plate average and StDev
[8] = LOPAC single-point screen, Z-score from raw signal with plate average and StDev

T1 sequence (Q92551 whole entry): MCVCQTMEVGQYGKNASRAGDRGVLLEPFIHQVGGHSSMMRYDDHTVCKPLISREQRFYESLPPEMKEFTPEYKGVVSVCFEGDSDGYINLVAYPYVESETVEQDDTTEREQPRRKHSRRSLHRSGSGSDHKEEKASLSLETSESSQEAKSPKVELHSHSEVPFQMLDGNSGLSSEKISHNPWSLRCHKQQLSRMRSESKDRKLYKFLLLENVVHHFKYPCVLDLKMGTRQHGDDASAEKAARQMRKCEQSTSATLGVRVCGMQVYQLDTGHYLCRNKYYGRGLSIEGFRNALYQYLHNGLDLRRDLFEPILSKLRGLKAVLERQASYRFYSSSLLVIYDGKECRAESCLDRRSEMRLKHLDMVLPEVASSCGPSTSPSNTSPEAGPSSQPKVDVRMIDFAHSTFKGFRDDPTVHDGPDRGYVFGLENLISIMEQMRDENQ

`O=C(c1ccc(F)cc1)C1CCN(CCn2c(=O)[nH]c3ccccc3c2=O)CC1` [Ketanserin tartrate] was tested, and the “Raw Signal” value [1] was 61310 and the Z-score [2] was 1.027.
`Cc1cc(C(C)(C)C)cc(C)c1CC1=NCCN1` [Xylometazoline hydrochloride] was tested, and the “Raw Signal” value [3] was 57404 and the Z-score [4] was 0.2681.
`CC(C)Cc1ccc([C@H](C)C(=O)O)cc1` [S(+)-Ibuprofen] was tested, and the “Raw Signal” value [3] was 55445 and the Z-score [4] was 0.1767.
In the case of `COc1ccc([C@@H]2Sc3ccccc3N(CCN(C)C)C(=O)[C@@H]2OC(C)=O)cc1` [Diltiazem hydrochloride], the “Raw Signal” value [5] is reported as 65486 and the Z-score [6] is reported as 2.096.
For `CCC(=O)c1ccc2c(c1)N(CCCN(C)C)c1ccccc1S2` [Propionylpromazine hydrochloride], the “Raw Signal” value [3] was 56049 and the Z-score [4] was 0.004895.
In the case of `Cc1cc(N)c2ccccc2[n+]1CCCCCCCCCCCCCC[n+]1c(C)cc(N)c2ccccc21` [Dequalinium analog, C-14 linker], the “Raw Signal” value [5] is reported as 52424 and the Z-score [7] is reported as -0.5571.
With `CNc1cc(NS(=O)(=O)c2ccc(N)cc2)nc(NC)n1.Cl.Cl` [Ro 04-6790 dihydrochloride] the “Raw Signal” value [5] was 63150 and the Z-score [6] was 1.384.
`CC(C)(C)NCC(O)c1ccccc1Cl` (stereo not drawn) [Tulobuterol hydrochloride] was tested, and the “Raw Signal” value [3] was 54303 and the Z-score [8] was -0.3343.
For `C[C@H](Cc1ccc(OCC(=O)[O-])cc1)NC[C@H](O)c1cccc(Cl)c1.[Na+]` [BRL 37344 sodium], the “Raw Signal” value [5] was 53982 and the Z-score [7] was -0.6924.
For `CN1CCC(=C2c3ccccc3C=Cc3ccccc32)CC1` [Cyproheptadine hydrochloride], the “Raw Signal” value [1] was 61620 and the Z-score [2] was 0.6529.
For `Br.NC1CCc2cc(O)c(O)cc2C1` (stereo not drawn) [6,7-ADTN hydrobromide], the “Raw Signal” value [3] was 55279 and the Z-score [4] was 0.02274.
In the case of `COc1ccccc1N1CCN(CCN(C(=O)C2CCCCC2)c2ccccn2)CC1.O=C(O)/C=C\C(=O)O` [WAY-100635 maleate], the “Raw Signal” value [3] is reported as 54317 and the Z-score [8] is reported as -0.3316.
With `NCC(CP(=O)(O)O)c1ccc(Cl)cc1` (stereo not drawn) [Phaclofen] the “Raw Signal” value [1] was 61057 and the Z-score [2] was 0.9779.
`Oc1ccc(C2CNCCc3c2cc(O)c(O)c3Cl)cc1` (stereo not drawn) [Fenoldopam bromide] was tested, and the “Raw Signal” value [1] was 59808 and the Z-score [2] was 0.9425.
For `CCC(C)N(C)C(=O)c1cc2ccccc2c(-c2ccccc2Cl)n1` (stereo not drawn) [PK 11195], the “Raw Signal” value [5] was 54307 and the Z-score [7] was -0.6351.
`CCCN1CCC[C@@H]2Cc3nc(N)ncc3C[C@H]21.Cl.Cl` [Quinelorane dihydrochloride] was tested, and the “Raw Signal” value [5] was 53110 and the Z-score [7] was -0.5661.
`C[C@H]1CCC/C=C/[C@@H]2C[C@H](O)C[C@H]2[C@H](O)/C=C/C(=O)O1` was tested, and the “Raw Signal” value [1] was 59928 and the Z-score [2] was 0.3549.
In the case of `CC1=C(/C=C/C(C)=C/C=C/C(C)=C/C(=O)Nc2ccc(O)cc2)C(C)(C)CCC1` [Retinoic acid p-hydroxyanilide], the “Raw Signal” value [3] is reported as 55637 and the Z-score [4] is reported as 0.09545.
For `Cn1c(=O)c2[nH]cnc2n(C)c1=O` [Theophylline], the “Raw Signal” value [5] was 53365 and the Z-score [7] was -0.5166.
`NC[C@@H]1O[C@H](O[C@H]2[C@@H](O)[C@H](O[C@@H]3[C@@H](O)[C@H](N)C[C@H](N)[C@H]3O[C@H]3O[C@H](CO)[C@@H](O)[C@H](O)[C@H]3N)O[C@@H]2CO)[C@H](N)[C@@H](O)[C@@H]1O` [Paromomycin sulfate] was tested, and the “Raw Signal” value [3] was 55765 and the Z-score [4] was -0.05028.
For `CN1[C@@H]2CC[C@H]1C[C@@H](OC(c1ccccc1)c1ccccc1)C2` [Benztropine mesylate], the “Raw Signal” value [1] was 60233 and the Z-score [2] was 0.4086.
In the case of `CC(C)(C)c1cc(C=C(C#N)C#N)cc(C(C)(C)C)c1O` [Tyrphostin A9], the “Raw Signal” value [3] is reported as 55633 and the Z-score [4] is reported as -0.07593.
With `CN(C)CCCN1c2ccccc2Sc2ccccc21` [Promazine hydrochloride] the “Raw Signal” value [5] was 63198 and the Z-score [6] was 1.394.
`COc1cc(C(=O)OCCCN2CCCN(CCCOC(=O)c3cc(OC)c(OC)c(OC)c3)CC2)cc(OC)c1OC` [Dilazep hydrochloride] was tested, and the “Raw Signal” value [3] was 56027 and the Z-score [4] was 0.1747.
With `OC1(c2ccc(Cl)cc2)CCN(Cc2c[nH]c3ccccc23)CC1` [L-741,626] the “Raw Signal” value [5] was 51249 and the Z-score [7] was -0.5284.
With `Oc1c2ccccc2c2c3c(cccc13)N=N2` [SP600125] the “Raw Signal” value [1] was 57057 and the Z-score [2] was 0.3838.
`CN(C)C(N)=NCCC[C@H](N)C(=O)O.Cl` [N^G,N^G-Dimethylarginine hydrochloride] was tested, and the “Raw Signal” value [3] was 52909 and the Z-score [8] was -0.4586.
`O=C(NCC1CCCCN1)c1cc(OCC(F)(F)F)ccc1OCC(F)(F)F` (stereo not drawn) [Flecainide acetate] was tested, and the “Raw Signal” value [5] was 50763 and the Z-score [7] was -0.8944.
For LY-367,265, the “Raw Signal” value [5] was 62501 and the Z-score [6] was 1.362.
`N#C/C(=C\c1ccc(O)c(O)c1)C(=O)NCc1ccccc1` [Tyrphostin AG 490] was tested, and the “Raw Signal” value [3] was 54184 and the Z-score [8] was -0.3574.
